Data: patent US4892887A, “N,N'-bis(sulfonyl)hydrazines having antineoplastic activity” (Yale University, priority 1988, dated 1990)
pIC50: −log10 of the molar value.

What was measured:
[1] = system: L1210 leukemia; experiment: Survival time of mice bearing the L1210 leukemia; type: in vivo, mouse (CDF-1 mice); conditions: for Av. Change wt. %: L1210 mice
Excerpt: The ascites cell forms of the L1210 leukemia, Sarcoma 180 and P388 leukemia were propagated in CDF-1 mice. […] Mice were weighed during the course of the experiments, and the percentage change in body weight from the onset to termination of therapy was used as an indication of host toxicity.
Each value represents the average of 5 animals per group.

[2] = system: P388 leukemia; experiment: Survival time of mice bearing the P388 leukemia; type: in vivo, mouse (CDF-1 mice); conditions: at 150 mg/kg
Description: The tumor-inhibitory properties of compounds 1-12 were determined by measuring their effects on the survival time of mice bearing the L1210 leukemia and in some cases Sarcoma 180, and the P388 leukemia. The ascites cell forms of the L1210 leukemia, Sarcoma 180 and P388 leukemia were propagated in CDF-1 mice. Transplantation was carried out using donor mice bearing 7-day tumor growths; experimental details are described in Agrawal et al., J. Med. Chem., 11, 700, 1968, incorporated herein by reference. Mice were weighed during the course of the experiments, and the percentage change in body weight from the onset to termination of therapy was used as an indication of host toxicity.

[3] = system: B16 melanoma; experiment: Survival time of mice bearing the B16 melanoma; type: in vivo, mouse (C57B1 mice); conditions: for Max. % T/C: Table IV, B16, at optimum effective daily dose; for Av. Change in wt., %: at optimum effective daily dose, B16 mice
Description: This tumor was propagated in C57B1mice. Transplantation was carried out by removing tumors from donor mice bearing 14-day subcutaneous tumor growths. The tissue was fragmented to make a well-dispersed cellular suspension and diluted with Fischer's medium without serum so that one gram of tissue was suspended in 5 ml of solution. A portion (0.2 ml) of the resulting cell suspension was injected intraperitoneally into each recipient animal. All compounds were administered over a wide range of dosage levels by intraperitoneal injection, beginning 24 hours after tumor implantation, once daily for 6 consecutive days. The test compounds were injected as fine suspensions following homogenization in 2 to 3 drops of 20% aqueous Tween 80 and then made up to volume with isotonic saline. […] Mice were weighed during the course of the experiments, and the percent change in body weight from onset to termination of therapy was used as an indication of drug toxicity. Determination of the sensitivity of neoplasms to these agents was based on the prolongation of survival time afforded by the drug treatments.
^a Administered once daily for six consecutive days, beginnign 24
hours after tumor transplanation, with 5 animals being used per group.
^b Average change in body weight from onset to termination of therapy
^c % T/C = average survival time of treated/control animals ×
100. Each value represents the average of 5 animals per group.

[4] = system: B16 melanoma cells; experiment: Cytotoxicity: colony-forming ability of B16 melanoma cells; type: cell-based; conditions: Mus musculus, 1 hour exposure, 12 days incubation, average of two determinations, read-out: LD50 (the source's name)
Description: The cytotoxicity of compounds 8 and 12 was determined by measuring their effects on the colony-forming ability of B16 melanoma cells. The cells were maintained in Eagle's minimum essential medium supplemented with 10% fetal bovine serum. To obtain exponentially growing B16 melanoma cells, a 25 cm^2 flask was inoculated with 10^5 cells for two days before addition of drug. The cell monolayer was exposed to various concentrations of compound for 1 hour. After exposure, the layer was washed twice with PBS to remove the compound. The cells were harvested with 2 mM EDTA in PBS, and 200 cells were plated on a 60 mm dish with 5 mL of medium. After incubation for 12 days, the colonies were stained with crystal violet and counted. […] The LD50 was determined from the individual dose-response curves.

[5] = 50 mg/kg once daily for six days
[6] = 100 mg/kg once daily for six days
[7] = 150 mg/kg once daily for six days
[8] = 10 mg/kg once daily for six days
[9] = 20 mg/kg once daily for six days
[10] = 30 mg/kg once daily for six days

## COc1ccc(S(=O)(=O)NN(C)S(=O)(=O)c2ccc(OC)cc2)cc1 [Compound 9, N,N'-bis (p-methoxybenzenesulfonyl)-N-methylhydrazine]
[1]; [5]
  Average Survival Time of Treated Animals, days ± SE: 13.4 ± 1.0 days
  Av. Change wt. %: +10.9%
[1]; [6]
  Average Survival Time of Treated Animals, days ± SE: 13.2 ± 1.1 days
  Av. Change wt. %: +1.9%
[1]; [7]
  Average Survival Time of Treated Animals, days ± SE: 12.2 ± 1.2 days
  Av. Change wt. %: -1.6%
[1]; Mus musculus, 144 h, 50 mg/kg once daily for six days, L1210, read-out: % T/C
  response vs control in vivo at 50 mg/kg: 149%
[1]; Mus musculus, 144 h, 100 mg/kg once daily for six days, L1210, read-out: % T/C
  response vs control in vivo at 100 mg/kg: 147%
[1]; Mus musculus, 144 h, 150 mg/kg once daily for six days, L1210, read-out: % T/C
  response vs control in vivo at 150 mg/kg: 136%
[2]
  Max. % T/C vs. P388 leukemia: 136 % T/C
[3]
  Max. % T/C: 191 % T/C
  Av. Change in wt., %: +2.4%

## Cc1ccc(S(=O)(=O)N(C)NS(C)(=O)=O)cc1 [Compound 12]
[1]; [8]
  Average Survival Time of Treated Animals, days ± SE: 14.8 ± 0.4 days
  Av. Change wt. %: +9.1%
[1]; [9]
  Average Survival Time of Treated Animals, days ± SE: 15.0 ± 0.7 days
  Av. Change wt. %: -2.0%
[1]; [10]
  Average Survival Time of Treated Animals, days ± SE: 19.2 ± 2.0 days
  Av. Change wt. %: -7.9%
[1]; Mus musculus, 144 h, 10 mg/kg once daily for six days, L1210, read-out: % T/C
  response vs control in vivo at 10 mg/kg: 161%
[1]; Mus musculus, 144 h, 20 mg/kg once daily for six days, L1210, read-out: % T/C
  response vs control in vivo at 20 mg/kg: 163%
[1]; Mus musculus, 144 h, 30 mg/kg once daily for six days, L1210, read-out: % T/C
  response vs control in vivo at 30 mg/kg: 209%
[1]; mouse, in vivo
  activity against the L1210 leukemia (in words): high level of activity against the L1210 leukemia
[3]; B16, daily dosage of 10 mg/kg (Table IV footnote d)
  % T/C: 206 % T/C
[3]; B16, daily dosage of 20 mg/kg (Table IV footnote d)
  % T/C: 206 % T/C
[3]; B16 melanoma in mice
  dosage range of activity against the B16 melanoma: 10 to 30 mg/kg
[3]
  Max. % T/C: 207 % T/C
  Av. Change in wt., %: -1.9%
[3]; above 10-30 mg/kg
  toxicity at higher dosage levels (in words): toxic at higher dosage levels
[4]
  pIC50: 6.21
